Results: patent publication US7863416B2, “Nociceptin-based analgesics” (Synvax, Inc., priority 2001, dated 2011)
Read-outs that look alike come from different tables or passages of the source. Numbered stars: 1 amine (or outer) side, 2 acyl side, 3 side chain; on linkers, the order of the positions; unused ones are H or OH. Square brackets hold non-standard residues; d marks the D form. Peptide text beside a SMILES is read from it. * marks the point of attachment. ξ: configuration not given here. Phe(4-NO2) = N[C@@H](Cc1ccc([N+](=O)[O-])cc1)C(=O)O; Tyr(3-Cl) = N[C@@H](Cc1ccc(O)c(Cl)c1)C(=O)O; Phe(4-F) = N[C@@H](Cc1ccc(F)cc1)C(=O)O; Tyr(BN∗,3-Cl) = not defined here; ξNip = O=C(C1CCCN([*:1])C1)[*:2]; Dab = NCC[C@H](N)C(=O)O; Dap = NC[C@H](N)C(=O)O; Hexanoyl = CCCCCC(=O)*; Pentanoyl = CCCCC(=O)*; Propionyl = CCC(=O)*; Ahx = NCCCCCC(=O)O

Assays:
mice [1] = experiment: Tail flick assay, peptide alone, intracerebroventricular injection
human ORL1 [2] = target: T1, human ORL1 (Homo sapiens, UniProt P41146); experiment: Stimulation of [35S]GTPγS binding in membranes of CHO cells transfected with human ORL-1; format: biochemical; conditions: for agonist/antagonist character at ORL1: in words; for Emax: read-out: % Stimulation ± SEM of [35S]GTPγS binding; for [35S]GTPγS Binding Percent Stimulation: relative to nociceptin; for EC50 ± SEM, stimulation of [35S]GTPγS binding: Table 6
T1 construct: expressed in transfected cells; host or cells: CHO cells (G418-selected)
T1 sequence (P41146 whole entry): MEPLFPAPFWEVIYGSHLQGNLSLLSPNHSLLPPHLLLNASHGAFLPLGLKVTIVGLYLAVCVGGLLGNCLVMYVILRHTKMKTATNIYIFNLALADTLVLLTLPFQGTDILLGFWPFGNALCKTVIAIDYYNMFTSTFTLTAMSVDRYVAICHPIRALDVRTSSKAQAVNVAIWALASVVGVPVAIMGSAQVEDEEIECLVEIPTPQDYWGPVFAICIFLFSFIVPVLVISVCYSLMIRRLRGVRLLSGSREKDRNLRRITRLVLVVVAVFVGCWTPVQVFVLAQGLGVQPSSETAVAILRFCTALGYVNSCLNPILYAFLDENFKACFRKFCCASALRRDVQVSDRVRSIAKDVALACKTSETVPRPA
Description: First, CHO cells transfected with human ORL-1 are scraped from tissue culture dishes into 20 mM HEPES, 1 mM EDTA, and then centrifuged at 500×g for 10 minutes. The cells are then re-suspended in this buffer and homogenized using a Polytron Homogenizer.
The cellular homogenate is next centrifuged at 20,000×g for 20 minutes. Following this, the resulting pellet is re-suspended in a buffer containing 20 mM HEPES, 10 mM MgCl2, and 100 mM NaCl, having a resulting pH of 7.4. The suspension is then re-centrifuged at 20,000×g and suspended once more in the above-listed buffer. The pellet may be frozen at −70° C. prior to the final centrifugation. For the binding assay, membranes (10-20 μg protein) are incubated with [^35S]GTPγγS (50 pM), GDP (usually 10 μM), and the desired compound. The total volume of the mixture is 1 ml, which is incubated for 60 min at 25° C.
Following incubation, samples are filtered over glass fiber filters and counted. […]
In these [^35S]GTPγS assays, binding was conducted as described above. EC50 values and percent stimulation were determined using the program Prism.

mice [3] = experiment: Tail flick assay, peptide combined with morphine and/or N/OFQ (morphine-induced analgesia); format: in vivo
Description: The modified Boniferroni Test was used for these planned comparisons (p value was set at P<0.036). Doses were determined based on the potency of the compounds tested.
The antagonist was next assayed for the ability to reverse the inhibition of morphine-induced analgesia. In this assay, the control received morphine alone, while test animals received morphine +3 nmol of the antagonist, morphine +10 nmol of the antagonist. […] For each of these animals, response was measured at 5, 10, and 20 minutes after intracerebroventricular injection.
The agonist VII-87-B was further investigated by evaluating its ability to reverse morphine-induced analgesia. In this assay, the control animal received 10 nmols of morphine alone, while test animals received morphine +0.1 nmol of the agonist, morphine +1.0 nmol of the agonist, or morphine +10.0 nmol of the agonist. For each of these animals, response was measured at 5, 10, and 20 minutes after intracerebroventricular injection.
The agonist VII-39-D was then further investigated by evaluating its ability to reverse morphine-induced analgesia. In this assay, the control animal received 10 nmols of morphine alone, while test animals received morphine +0.1 nmol of the agonist, morphine +1.0 nmol of the agonist, or morphine +10.0 nmol of the agonist. For each of these animals, response was measured at 5, 10, and 20 minutes after intracerebroventricular injection.

human ORL1 [4] = target: T1, human ORL1; experiment: [3H]nociceptin binding to membranes of CHO cells transfected with human ORL1; conditions: for Hill Coefficient: Table 5
human ORL1 [5] = target: T1, human ORL1; experiment: Antagonism of nociceptin-stimulated [35S]GTPγS binding (inhibition, Schild analysis); format: biochemical
[6] = In vivo test for analgesic activity and potentiation of morphine analgesia

| Compound | agonist/antagonist character at ORL1 (human ORL1 [2]) | Emax (human ORL1 [2]) [%] | Hill Coefficient (human ORL1 [4]) | EC50 ± SEM, stimulation of [35S]GTPγS binding (human ORL1 [2]) | other results |
| --- | --- | --- | --- | --- | --- |
| CC(=O)N[C@@H](CCCNC(=N)N)C(=O)N[C@@H](Cc1ccc(O)c(Cl)c1)C(=O)N[C@@H](Cc1ccc(O)cc1)C(=O)N[C@@H](CCCNC(=N)N)C(=O)N[C@@H](Cc1c[nH]c2ccccc12)C(=O)N[C@@H](CCCNC(=N)N)C(N)=O [VII-87-B, Ac-Arg-Tyr(3-Cl)-Tyr-Arg-Trp-Arg-NH2] (Ac-R[Tyr(3-Cl)]YRWR-NH2) | agonist | 72 | – | – | effect on nociception (% antinociception) (mice [1]; 10 nmol icv, 5, 10 and 20 minutes post-injection): induced pro-nociception; reversal of morphine-induced analgesia (mice [3]; morphine 10 nmol + 0.1, 1.0, 10.0 nmol agonist icv, at 10 and 20 minutes with 10 nmol): dose-dependent reversal of morphine-induced analgesia |
| Ac-RY(D)YR(D)WRNH2 [IV-12-B] | – | – | – | – | IC50 (human ORL1 [4]; read-out: [3H]nociceptin Binding IC50, Table 1): 1140 nM; EC50 (human ORL1 [2]; Table 1, read-out: [35S]GTPγS Binding EC50): > 10000 nM; [35S]GTPγS Binding Percent Stimulation (human ORL1 [2]; Table 1): <10% |
| CC(=O)N[C@@H](CCN)C(=O)N[C@@H](Cc1ccc(O)cc1)C(=O)N[C@@H](Cc1ccc(O)cc1)C(=O)N[C@@H](CCCNC(=N)N)C(=O)N[C@@H](Cc1c[nH]c2ccccc12)C(=O)N[C@@H](CCCNC(=N)N)C(N)=O [VII-67-A, Ac-Dab-Tyr-Tyr-Arg-Trp-Arg-NH2] (Ac-[Dab]YYRWR-NH2) | – | < 20 | 1.07 | FLAT | – |
| CC(=O)N[C@@H](CCCNC(=N)N)C(=O)N[C@@H](Cc1ccc(O)cc1)C(=O)N[C@@H](Cc1ccc(O)cc1)C(=O)NCCCCCC(=O)N[C@@H](Cc1c[nH]c2ccccc12)C(=O)N[C@@H](CCCNC(=N)N)C(N)=O [VII-55-A, Ac-Arg-Tyr-Tyr-ε-aminocaproyl-Trp-Arg-NH2] (Ac-RYY[Ahx]WR-NH2) | – | 26.6 ± 1.95 | 1.12 | – | – |
| COc1ccc(C[C@H](NC(=O)[C@H](CCCNC(=N)N)NC(C)=O)C(=O)N[C@@H](Cc2ccc(OC)cc2)C(=O)N[C@@H](CCCNC(=N)N)C(=O)N[C@@H](Cc2c[nH]c3ccccc23)C(=O)N[C@@H](CCCNC(=N)N)C(N)=O)cc1 [VII-37-B, Ac-Arg-Tyr(4-Me)-Tyr(4-Me)-Arg-Trp-Arg-NH2] (Ac-RY(Me)Y(Me)RWR-NH2) | – | < 20 | 0.82 | FLAT | – |
| CCC(=O)N[C@@H](CCCNC(=N)N)C(=O)N[C@@H](Cc1ccc(O)cc1)C(=O)N[C@@H](Cc1ccc(O)cc1)C(=O)N[C@@H](CCCNC(=N)N)C(=O)N[C@@H](Cc1c[nH]c2ccccc12)C(=O)N[C@@H](CCCNC(=N)N)C(N)=O [IV-16-C, Propionyl-RYYRWR-NH2] (Propionyl-RYYRWR-NH2) | nearly full agonist | – | – | – | IC50 (human ORL1 [4]): 1.2 nM; [35S]GTPγS Binding Percent Stimulation (human ORL1 [2]; Table 1): 82% |
| CC(=O)N[C@@H](CN)C(=O)N[C@@H](Cc1ccc(O)cc1)C(=O)N[C@@H](Cc1ccc(O)cc1)C(=O)N[C@@H](CCCNC(=N)N)C(=O)N[C@@H](Cc1c[nH]c2ccccc12)C(=O)N[C@@H](CCCNC(=N)N)C(N)=O [VII-65-F, Ac-Dap-Tyr-Tyr-Arg-Trp-Arg-NH2] (Ac-[Dap]YYRWR-NH2) | – | 13.7 ± 1.18 | 1.1 | FLAT | – |
| CC(=O)NCCCCCC(=O)N[C@@H](Cc1ccc(O)cc1)C(=O)N[C@@H](Cc1ccc(O)cc1)C(=O)N[C@@H](CCCNC(=N)N)C(=O)N[C@@H](Cc1c[nH]c2ccccc12)C(=O)N[C@@H](CCCNC(=N)N)C(N)=O [VII-53-B, Ac-ε-aminocaproyl-Tyr-Tyr-Arg-Trp-Arg-NH2] (Ac-[Ahx]YYRWR-NH2) | – | 39.5 ± 4 | 0.86 | – | – |
| CCCCC(=O)N[C@@H](CCCNC(=N)N)C(=O)N[C@@H](Cc1ccc(O)cc1)C(=O)N[C@@H](Cc1ccc(O)cc1)C(=O)N[C@@H](CCCNC(=N)N)C(=O)N[C@@H](Cc1c[nH]c2ccccc12)C(=O)N[C@@H](CCCNC(=N)N)C(N)=O [VII-7-B, Pentanoyl-Arg-Tyr-Tyr-Arg-Trp-Arg-NH2] (Pentanoyl-RYYRWR-NH2) | very potent antagonist | < 20 | 0.8 | FLAT | analgesic effect (% antinociception) (mice [1]; 10.0 and 30.0 nmol icv, 10 and 20 minutes post-injection): showed analgesic properties; effect on morphine-induced analgesia (mice [3]; 10 nmol alone or with N/OFQ, 5 minutes post-injection): reduction in morphine-induced analgesia; effect on nociceptin action on morphine analgesia (mice [3]; 10 and 20 minutes post injection): did not alter the effects of nociceptin; reversal of nociceptin's inhibition of morphine-induced analgesia (mice [3]; morphine + nociceptin + 3 or 10 nmol antagonist icv, FIG. 11): did not reverse the inhibition of morphine-induced analgesia; shift of nociceptin dose response curve (human ORL1 [5]; FIG. 9): dose-dependent parallel shift; pA2, Schild analysis (human ORL1 [5]; nociceptin dose response curve): 8.99±0.05; slope, Schild analysis (human ORL1 [5]; nociceptin dose response curve): −1.02 |
| CC(=O)N[C@@H](CCCNC(=N)N)C(=O)N[C@@H](Cc1ccc(O)cc1)C(=O)N[C@@H](Cc1ccc(F)cc1)C(=O)N[C@@H](CCCNC(=N)N)C(=O)N[C@@H](Cc1c[nH]c2ccccc12)C(=O)N[C@@H](CCCNC(=N)N)C(N)=O [VII-61-B, Ac-Arg-Tyr-Phe(4-F)-Arg-Trp-Arg-NH2] (Ac-RY[Phe(4-F)]RWR-NH2) | – | 70.4 ± 1.98 | 1.05 | – | Ki (human ORL1 [4]): 0.05 nM |
| β-Nva-Arg-Tyr-Tyr-Arg-Trp-Arg-NH2 (βNva-RYYRWR-NH2) [VII-2-A] | – | – | 1.0 | FLAT | – |
| CCCCCC(=O)N[C@@H](CCCNC(=N)N)C(=O)N[C@@H](Cc1ccc(O)cc1)C(=O)N[C@@H](Cc1ccc(O)cc1)C(=O)N[C@@H](CCCNC(=N)N)C(=O)N[C@@H](Cc1c[nH]c2ccccc12)C(=O)N[C@@H](CCCNC(=N)N)C(N)=O [IV-17-C, Hexanoyl-RYYRWR-NH2] (Hexanoyl-RYYRWR-NH2) | very low efficacy compound | – | – | – | IC50 (human ORL1 [4]): 2.6 nM; [35S]GTPγS Binding Percent Stimulation (human ORL1 [2]; Table 1): 18%; potency as antagonist relative to N^1-Phe-nociceptin (1-13)NH2 (human ORL1 [5]; FIG. 2): at least 10 times; stimulation of [35S]GTPγS binding remaining (human ORL1 [5]; at 1 and 10 μM, with 10 nM nociceptin): 20%; analgesic activity and potentiation of morphine analgesia in vivo [6]: no measurable in vivo activity |
| Ac-Arg-Tyr(BN*, 3-Cl)-Tyr-Arg-Trp-Arg-NH2 (Ac-R[Tyr(BN∗,3-Cl)]YRWR-NH2; reading uncertain; also: printed as Ac-Arg-Tyr(BN*, 3-Cl)-Tyr-Arg-Trp-Arg-NH2) [VII-39-D] | full agonist | – | 1.03 | – | effect on nociception (% antinociception) (mice [1]; 0.1, 1.0 or 10.0 nmol icv, 5, 10 and 20 minutes post-injection): did not induce anti- or pro-nociception; effect on morphine-induced analgesia (mice [3]; morphine 10 nmol + 1.0 and 10 nmol agonist icv, 5, 10 and 20 minutes): attenuation of morphine-induced analgesia |
| N=C(N)NCCC[C@H](NC(=O)[C@H](Cc1c[nH]c2ccccc12)NC(=O)[C@H](CCCNC(=N)N)NC(=O)[C@H](Cc1ccc(O)cc1)NC(=O)[C@H](Cc1ccc(O)cc1)NC(=O)[C@H](CCCNC(=N)N)NC(=O)C1CCCNC1)C(N)=O (stereo partly drawn) [VII-1-A, Nipacotyl-Arg-Tyr-Tyr-Arg-Trp-Arg-NH2] (ξNip-RYYRWR-NH2) | – | < 20 | 0.97 | FLAT | – |
| CC(=O)N[C@@H](CCCNC(=N)N)C(=O)N[C@@H](Cc1ccc(O)cc1)C(=O)N[C@@H](Cc1ccc([N+](=O)[O-])cc1)C(=O)N[C@@H](CCCNC(=N)N)C(=O)N[C@@H](Cc1c[nH]c2ccccc12)C(=O)N[C@@H](CCCNC(=N)N)C(N)=O [VII-63-B, Ac-Arg-Tyr-Phe(4-NO2)-Arg-Trp-Arg-NH2] (Ac-RY[Phe(4-NO2)]RWR-NH2) | – | 43.2 ± 0.59 | 1.01 | – | – |
| CC(=O)N[C@@H](CCCNC(=N)N)C(=O)N[C@@H](Cc1ccc([N+](=O)[O-])cc1)C(=O)N[C@@H](Cc1ccc(O)cc1)C(=O)N[C@@H](CCCNC(=N)N)C(=O)N[C@@H](Cc1c[nH]c2ccccc12)C(=O)N[C@@H](CCCNC(=N)N)C(N)=O [VII-23-B, Ac-Arg-Phe(NO2)-Tyr-Arg-Trp-Arg-NH2] (Ac-R[Phe(4-NO2)]YRWR-NH2) | – | 56.6 ± 20.4 | 0.74 | – | – |
